As a reminder, the IC50 is the concentration that inhibits the measured activity by half. The melting point is the temperature of the solid-liquid transition.

Where two headings read alike, the source gives them in different places. Some results are limits rather than exact numbers.

The test system of series [1] is adhesion of Ramos cells to VCAM-1. Put plainly: Adhesion of Ramos cells to immobilized VCAM-1 (domains 1-3). The series is classed as cell-based. To be noted: Homo sapiens. From the text:
In Vitro Assay: Adhesion of Ramos Cells to Immobilized VCAM-1 (Domains 1-3) Preparation of VCAM-1 (Extracellular Domains 1-3)
Complementary DNA (cDNA) encoding 7-domain form of VCAM-1 (GenBank accession #M60335) was obtained using Rapid-Screen™ cDNA library panels (OriGene Technologies, Inc) at Takara Gene Analysis Center (Shiga, Japan). The primers used were 5′-CCAAGGCAGAGTACGCAAAC-3′ (sense) and 5′-TGGCAGGTATTATTAAGGAG-3′ (antisense). PCR amplification of the 3-domain VCAM-1 cDNA was perform using Pfu DNA polymerase (Stratagene) with the following sets of primers: (U-VCAMd1-3) 5′-CCATATGGTACCTGATCAATTTAAAATCGAGACCACCCCAGAA-3′; (L-VCAMdl-3) 5-CCATATAGCAATCCTAGGTCCAGGGGAGATCTCAACAGTAAA-3′. PCR cycle was 94° C. for 45 sec, 55° C. for 45 sec, 72° C. for 2 min, repeating 15 cycles. After the purification of the PCR product, the fragment was digested with KpnI-AvrII. The digested fragment was ligated into pBluescript IISK(−) (Strategene), which was linearized by digesting with KpnI-XhoI. The ligation was followed by transformation to a Dam/Dcm methylase-free E. coli strain SCS110 (Strategene) to create the donor plasmid […]. To direct VCAM-1 molecule into the insect cell secretory pathway, the VCAM-1 coding sequence was fused to signal peptide sequence of honeybee melittin. The resulting melittin-VCAM fusion was placed in correct orientation to the baculovirus polyhedrin promoter. Baculovirus transfer vector containing first 3-domain form VCAM-1 (pH10) was constructed by ligation of 0.9 kb fragment from AvrII/Klenow/BclI digests of pH7 into SalI/Klenow/BamHI digests of pMelBacB (Invitrogen). Recombinant baculovirus was generated by using Bac-N-Blue™ Transfection kit (Invitrogen) according to the manufacture's instruction. The recombinant virus was amplified by infection to High-Five™ insect cells for 5-6 days, and virus titer was determined by plaque assay.
High-Five™ insect cells were pelleted in a 225 ml conical tube by centrifugation at 1000 rpm for 5 min. After discarding the supernatant, the pellet was resuspended in 1.5×10^9 pfu (MOI=5) of high-titer virus solution, followed by incubation for 1.5 hours at room temperature. The cells were pelleted again and washed once in fresh Express Five™ serum free medium. The cells were pelleted again and finally, resuspended in 200 ml of fresh Express Five TM medium, transferred to a 1,000 ml shaker flask, and incubated in a shaker at 27° C., 130 rpm, for 48 hours before the culture supernatant was collected. The purification of 3-domain form of VCAM-1 from the culture supernatant was performed by one-step anion exchange chromatography. Protein concentration was determined by using Coomassie protein assay reagent (Pierce) according to the manufacture's instruction.
Preparation of VCAM-1 Coated Microtiter Plates
Recombinant human VCAM-1 (extracellular domains 1-3) was dissolved at 1.0 μg/ml in PBS. Each well of the microtiter plates (Nalge Nunc International, Fluoronunc Cert, 437958) was coated with 100 μl of substrate or for background control with buffer alone for 15 hours at 4 C. After discarding the substrate solution, the wells were blocked using 150 μl per well of block solution (Kirkegaard Perry Laboratories, 50-61-01) for 90 minutes. The plate was washed with wash buffer containing 24 mM Tris-HCl (pH 7.4), 137 mM NaCl, […] and 2 mM MnCl2 just before addition of the assay.
In Vitro Assay using Ramos Cells
Preparation of Fluorescence Labeled Ramos Cells:
Ramos cells (American Type Culture Collection, Clone CRL-1596) were cultured in RPMI 1640 medium (Nikken Bio Medical Laboratory, CM1101) supplemented with 10% fetal bovine serum (Hyclone, A-1119-L), 100 U/ml penicilin (Gibco BRL, 15140-122) and 100 μg/ml streptomycin (Gibco BRL, 15140-122) in a humidified incubator at 37° C. with 5% CO2. […]

The mark [2] stands for this setting: observed IC50 value ranges, Table 4 does not say whether Ramos-VCAM-1 or Jurkat-VCAM-1, read-out: IC50.

In turn, `Cc1ccccc1NC(=O)Nc1ccc(CC(=O)NCC(=O)N(CC(C)C)c2ccc(C(=O)O)cc2)cc1` [Example 51, 4-[isobutyl(N-{[4-({[(2-methylphenyl)amino]carbonyl}amino)phenyl]acetyl}glycyl)amino]benzoic acid] came in with a melting point of 131 to 132 °C. Further, the IC50 in series [1] (Ramos) was over 10 µM. In the same order, the values of `Cc1ccccc1Nc1nc2ccc(CC(=O)N(CCc3ccccn3)CC(=O)Nc3ccc(C(=O)O)cc3)cc2o1` [Example 83, 4-({N-({2-[(2-methylphenyl)amino]-1,3-benzoxazol-6-yl}acetyl)-N-[2-(2-pyridinyl)ethyl]glycyl}amino)benzoic acid] are 175 to 176 °C and under 0.5 µM.

The compound `O=C(CN(CCc1cccc(Cl)c1)C(=O)Cc1ccc2nc(Nc3ccccc3)oc2c1)Nc1ccc(C(=O)O)cc1` [Example 78] showed a melting point of 162 to 165 °C. The same compound returned an IC50 in series [1] (Ramos) of 0.5 to 2 µM. `COCCCN(CC(=O)N(C)c1ccc(C(=O)O)cc1)C(=O)Cc1ccc(NC(=O)Nc2ccccc2C)cc1` [Example 53, 4-[(N-(3-methoxypropyl)-N-{[4-({[(2-methylphenyl)amino]carbonyl}amino)phenyl]acetyl}glycyl)(methyl)amino]benzoic acid] gave a melting point of 63 to 64 °C. The compound also registered an IC50 in series [1] (Ramos) of 0.5 to 2 µM.

`Cc1ccccc1NC(=O)Nc1ccc(CC(=O)N[C@@H](CCCCN)C(=O)Nc2ccc(C(=O)O)cc2)cc1.O=C(O)C(F)(F)F` [Example 53a] yielded a melting point of 168 to 169 °C. Also, the IC50 in series [1] (setting [2]) is under 0.5 µM. As for `O=C(CN(CCc1ccc(Cl)c(Cl)c1)C(=O)Cc1ccc2nc(Nc3ccccc3)oc2c1)Nc1ccc(C(=O)O)cc1` [Example 79], the melting point lay within 170 to 171 °C. In series [1] (Ramos), the IC50 lay within 2 to 10 µM. As for `O=C(Cc1ccc2nc(Nc3ccccc3)oc2c1)NCC(=O)Nc1ccc(C(=O)O)cc1` [Example 74, 4-({N-[(2-anilino-1,3-benzoxazol-6-yl)acetyl]glycyl}amino)benzoic acid], the melting point was over 280 °C. Besides, in series [1] (Ramos), the IC50 is under 0.5 µM. In the same order, the values of `Cc1ccccc1NC(=O)Nc1ccc(CC(=O)NC2CCCN(c3ccc(C(=O)O)cc3)C2)cc1` (stereo not drawn) [Example 49, 4-[3-({[4-({[(2-methylphenyl)amino]carbonyl}amino)phenyl]acetyl}amino)-1-piperidinyl]benzoic acid] are 236 to 238 °C and under 0.5 µM. The corresponding values for `Cc1ccccc1Nc1nc2ccc(CC(=O)N(CCc3ccccc3)CC(=O)Nc3ccc(C(=O)O)cc3)cc2o1` [Example 82, 4-{[N-({2-[(2-methylphenyl)amino]-1,3-benzoxazol-6-yl}acetyl)-N-(2-phenylethyl)glycyl]amino}benzoic acid] are 232 to 233 °C and under 0.5 µM. In the same order, the values of `Cc1ccccc1Nc1nc2ccc(CC(=O)NCC(=O)Nc3ccc(C(=O)O)cc3)cc2o1` [Example 81, 4-{[N-({2-[(2-methylphenyl)amino]-1,3-benzoxazol-6-yl}acetyl)glycyl]-amino}benzoic acid] are 267 to 268 °C and under 0.5 µM.

Take `Cc1ccccc1NC(=O)Nc1ccc(CC(=O)N(CC(=O)Nc2ccc(C(=O)O)cc2)CC2CCCO2)cc1` (stereo not drawn) [Example 61, 4-{[N-{[4-({[(2-methylphenyl)amino]carbonyl}amino)phenyl]acetyl}-N-(tetrahydro-2-furanylmethyl)glycyl]amino}benzoic acid]: in series [1] (Ramos), the IC50 is under 0.5 µM. For `Cc1ccccc1NC(=O)Nc1ccc(CC(=O)N[C@@H](CCN)C(=O)Nc2ccc(C(=O)O)cc2)cc1` [Example 40, 4-{[(2S)-4-amino-2-({[4-({[(2-methylphenyl)amino]carbonyl}amino)phenyl]acetyl}amino)butanoyl]amino}benzoic acid], the IC50 in series [1] (Ramos) was under 0.5 µM.

In series [1] (Ramos), `O=C(CN(CCCN1CCCC1)C(=O)Cc1ccc2nc(Nc3ccccc3)oc2c1)Nc1ccc(C(=O)O)cc1` [Example 84] returned an IC50 of 0.5 to 2 µM.

`COc1cccc(CCN(CC(=O)Nc2ccc(C(=O)O)cc2)C(=O)Cc2ccc3nc(Nc4ccccc4)oc3c2)c1` [Example 87, 4-({N-[(2-anilino-1,3-benzoxazol-6-yl)acetyl]-N-[2-(3-methoxyphenyl)ethyl]-glycyl}amino)benzoic acid]: the IC50 in series [1] (Ramos) is under 0.5 µM. Consider `COCCN(CC(=O)Nc1ccc(C(=O)O)cc1)C(=O)Cc1ccc(NC(=O)Nc2ccccc2C)cc1` [Example 67, 4-[(N-(2-methoxyethyl)-N-{[4-({[(2-methylphenyl)amino]carbonyl}amino)-phenyl]acetyl}glycyl)amino]benzoic acid], for which the IC50 in series [1] (Ramos) is under 0.5 µM. On the same count and under the same terms, the result for `Cc1ccccc1NC(=O)Nc1ccc(CC(=O)N(CC(=O)Nc2ccc(C(=O)O)cc2)Cc2ccccc2)cc1` [Example 86, 4-[(N-benzyl-N-{[4-({[(2-methylphenyl)amino]carbonyl}amino)phenyl]-acetyl}glycyl)amino]benzoic acid] reads under 0.5 µM; that for `O=C(Cc1ccc2nc(Nc3ccccc3)oc2c1)N[C@@H](Cc1ccccc1)C(=O)Nc1ccc(C(=O)O)cc1` [Example 89, 4-({N-[(2-anilino-1,3-benzoxazol-6-yl)acetyl]-L-phenylalanyl}amino)benzoic acid], under 0.5 µM. Consider `Cc1ccccc1NC(=O)Nc1ccc(CC(=O)N(CCN2CCCC2)CC(=O)Nc2ccc(C(=O)O)cc2)cc1` [Example 64, 4-({N-{[4-({[(2-methylphenyl)amino]carbonyl}amino)phenyl]acetyl}-N-[2-(1-pyrrolidinyl)ethyl]glycyl}amino)benzoic acid], for which the IC50 in series [1] (setting [2]) was under 0.5 µM. For `Cc1ccccc1NC(=O)Nc1ccc(CC(=O)NC(Cc2ccncc2)C(=O)Nc2ccc(C(=O)O)cc2)cc1` [Example 44, 4-{[N-{[4-(f{[(2-methylphenyl)amino]carbonyl}amino)phenyl]acetyl}-3-(4-pyridinyl)-L-alanyl]amino}benzoic acid], in series [1] (Ramos), the IC50 is under 0.5 µM. In series [1] (Ramos), `Cc1ccccc1NC(=O)Nc1ccc(CC(=O)N(CCCN2CCN(c3ccccc3)CC2)CC(=O)Nc2ccc(C(=O)O)cc2)cc1` [Example 60, 4-({N-{[4-({[(2-methylphenyl)amino]carbonyl}amino)phenyl]acetyl}-N-[3-(4-phenyl-1-piperazinyl)propyl]glycyl}amino)benzoic acid] showed an IC50 of under 0.5 µM. Still for that read-out and setting: the result for `Cc1ccccc1NC(=O)Nc1ccc(CC(=O)N[C@@H](Cc2cscn2)C(=O)Nc2ccc(C(=O)O)cc2)cc1` [Example 46, 4-{[N-{[4-({[(2-methylphenyl)amino]carbonyl}amino)phenyl]acetyl}-3-(1,3-thiazol-4-yl)-L-alanyl]amino}benzoic acid] reads under 0.5 µM; that for `Cc1ccccc1NC(=O)Nc1ccc(CC(=O)N(CC(=O)Nc2ccc(C(=O)O)cc2)Cc2ccccn2)cc1` [Example 70, 4-{[N-{[4-({[(2-methylphenyl)amino]carbonyl}amino)phenyl]acetyl}-N-(2-pyridinylmethyl)glycyl]amino}benzoic acid], under 0.5 µM. Compound `Cc1ccccc1NC(=O)Nc1ccc(CC(=O)N[C@@H](Cc2cccnc2)C(=O)Nc2ccc(C(=O)O)cc2)cc1` [Example 45, 4-{[N-{[4-({[(2-methylphenyl)amino]carbonyl}amino)phenyl]acetyl}-3-(3-pyridinyl)-L-alanyl]amino}benzoic acid] showed an IC50 in series [1] (Ramos) of under 0.5 µM.

The record behind these values is patent US20050054582A1, “Para-amino benzoic acids as integrin antagonists” (priority 2001, published 2005).
